Results published in PubChem BioAssay AID2644 (Southern Research Specialized Biocontainment Screening …, 2010).
Activity calls are given as the source filed them.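 The calls were made as follows: active = compounds cutting the HIV-1 infection reporter signal by at least 50%; inactive = the rest.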

Tested on: MAGI-CCR5 cells, HIV-1 Ba-L, beta-gal luminescence, 48 h
Assay: anti-HIV-1 activity in MAGI-CCR5 cells – cell-based, HIV-1 Ba-L, beta-gal reporter, 5%/10% serum, SAR follow-up (AID 2644)
[1] = measured here: antiviral IC50 in 10% serum

SMILES	IC50	IC50 [1] [µM]
CC(C)(C)c1cc(-c2csc(Nc3ccccc3)[n+]2Cc2ccc(C(=O)O)cc2)cc(C(C)(C)C)c1O	7.17 µM	12.3
CCOC(=O)c1sc(N2C(=O)C(O)=C(C(=O)c3ccc(C)o3)C2c2cccc([N+](=O)[O-])c2)nc1C (configuration not stated)	20.6 µM	18.5
O=C1NC(=S)N(c2ccc(F)cc2)C(=O)/C1=C\c1ccoc1	> 100 µM (inactive)	> 100
O=C(N/N=C/c1c(O)n(C2CCCCC2)c(=S)[nH]c1=O)c1ccccc1O	46.4 µM	45
Cc1c2c(=O)n(-c3nc4ccccc4s3)nc-2cc(O)n1Cc1ccccc1	12.5 µM	11.1
CC(C)NC(=O)c1sc(=S)n2c1[nH]c(=O)c1ccc(C(=O)NCCc3ccc(Cl)cc3)cc12	35.1 µM	63.4
CCC(Sc1nc2ccsc2c(=O)n1Cc1ccc(C(=O)O)cc1)C(=O)Nc1ccc(C)c(Cl)c1 (configuration not stated)	14.6 µM	37.8
COC(=O)c1sc(-c2ccc(C(C)(C)C)cc2)cc1NC(=O)c1ccccc1C(=O)O	49.9 µM	54.9
COc1cc(/C=C2\SC(=O)N(c3ccccc3Cl)C2=O)cc([N+](=O)[O-])c1O	13.9 µM	23.8
N#C/C(=C\c1ccc(O)c([N+](=O)[O-])c1)c1nc2ccccc2s1	7.96 µM	15.1
O=C(O)c1ccccc1N=Nc1c(O)[nH]c2ccc([N+](=O)[O-])cc12	> 100 µM (inactive)	> 100
O=C(O)CCCN1C(=O)/C(=C/c2ccc(-c3nc4ccccc4s3)o2)SC1=S	80.8 µM	95.4
N#C/C(=C\c1ccc(OCc2ccc(Cl)cc2)cc1)C(=O)Nc1cccc(C(=O)O)c1	> 100 µM (inactive)	> 100
Cc1c(Cl)cccc1NS(=O)(=O)c1ccc2c(c1)C1C=CCC1C(c1ccc(C(=O)O)cc1)N2 (configuration not stated)	16.7 µM	40.6
CCOC(=O)C1=C(C)N=c2sc(=Cc3ccc(OCC(=O)O)cc3)c(=O)n2C1c1ccc(OC(C)C)cc1 (configuration not stated)	20.9 µM	26
Oc1c(Cl)cc(Cl)c(Cl)c1Cc1c(O)c(Cl)cc(Cl)c1Cl	49.3 µM	> 100
O=[N+]([O-])c1cc([N+](=O)[O-])c2oc(-c3ccccc3)c(Br)c2c1O	4.46 µM	9.38
CSc1nnc(-c2ccccc2N=Cc2c(C)[nH]n(-c3ccc4ccccc4c3)c2=O)c(=O)[nH]1	53.1 µM	> 100
COc1cc(/C=N/NS(=O)(=O)c2ccc3ccccc3c2)ccc1OCc1ccc(C(=O)O)cc1	> 100 µM (inactive)	> 100
CCOc1cc(/C=C2\SC(=O)N(CC(=O)Nc3ccccc3F)C2=O)cc([N+](=O)[O-])c1O	21 µM	26.3
CCC(C)(C)C1CCc2c(sc(NC(=O)c3ccccc3C(=O)O)c2C#N)C1 (configuration not stated)	> 100 µM (inactive)	> 100
